Reference: patent US20190365673A1, “Immunomodulatory Compounds” (Lankenau Institute for Medical Research, priority 2016, published 2019)

Legend:
[1] = tested on: WM3211 melanoma cells; assay: Cell viability assay (EZQuant), WM3211; assay type: cell-based; details: Homo sapiens; AP alone, 72 h, WM3211, BRAF WT
Procedure: Cell proliferation assays were conducted in 96-well plates at 25-30% starting confluence to determine the effect of exposure to increasing concentrations of PLX4720 or AP with or without 1 mM DFMO for 72 hours. Cell viability was assessed using the EZQuant™ Cell Quantifying Kit (Alstem) in which WST-8 is reduced by the metabolic activity of live cells to formazan dye. […] The 72 hour IC50 values for AP were calculated using non-linear regression (sigmoidal dose response) of the plot of percentage inhibition versus the log of inhibitor concentration in GraphPad Prism (v5; GraphPad Software, Inc., La Jolla, Calif.).

[2] = tested on: polyamine transport system (PTS); assay: Radiolabeled spermidine transport assay, human melanoma cell lines; assay type: cell-based; details: ± SD
Procedure: Polyamine transport in tumor cells was evaluated essentially as described (Kramer, et al. (1993) J. Cell Physiol., 155(2):399-407; Nilsson, et al. (2005) Cancer Cell 7(5):433-444). Radioactive spermidine (Net-522 Spermidine Trihydrochloride, [Terminal Methylenes-^3H(n)]) from Perkin Elmer was used (specific activity: 16.6 Ci/mmol). Cells were plated in 96 well plates and grown to approximately 80% confluence. Half of the cells were treated with 1 mM DFMO for 40 hours. After repeated washing with PBS, ^3H-spermidine was added at 1 μM and incubated for 60 minutes at 37° C. Cells were then washed with cold PBS containing 50 μM spermidine and lysed in 0.1% SDS at 37° C. for 30 minutes with mixing. Cell lysates were then aliquoted for scintillation counting and for protein assay using a mini-BioRad assay. Results were expressed as CPM/g protein.

[3] = tested on: B16F10-BRAF^V600E cells; assay: Cell viability assay, B16F10-BRAF V600E; details: Mus musculus, read-out: IC50 (cytotoxicity)
Procedure: Cell proliferation assays were conducted in 96-well plates at 25-30% starting confluence to determine the effect of exposure to increasing concentrations of PLX4720 or AP with or without 1 mM DFMO for 72 hours. Cell viability was assessed using the EZQuant™ Cell Quantifying Kit (Alstem) in which WST-8 is reduced by the metabolic activity of live cells to formazan dye. For spheroids treated with PLX4720 and/or AP, viability of the spheroid cells was estimated by quantification of the ATP present using a CellTiter-Glo Luminescent Cell Viability Assay (Promega Co., Madison, Wis.). The 72 hour IC50 values for AP were calculated using non-linear regression (sigmoidal dose response) of the plot of percentage inhibition versus the log of inhibitor concentration in GraphPad Prism (v5; GraphPad Software, Inc., La Jolla, Calif.).

[4] = tested on: 1205Lu melanoma spheroids; assay: 3D spheroid culture viability (CellTiter-Glo); assay type: cell-based, human; details: FIG. 10, 25 μM each drug, 48 h, 3D spheroids on NCPs
Procedure: (§1) BRAF^V600E mutant 1205Lu melanoma cells were seeded at 1×10^4 cells in each well of the […] NCPs. When spheroids were formed on day 3, the 3D cultures of spheroids were treated with PLX4720 (25 μM) and/or AP (25 μM). 2D monolayer cultures of 1205Lu melanoma cells were also treated with PLX4720 (25 μM) and/or AP (25 μM). After drug treatment for 48 hours, the viability of spheroids and monolayer cultures was assayed using the CellTiter-Glo Luminescent Cell Viability Assay. The percent cell survival in each treatment group was calculated relative to cells treated with medium only under the same conditions. As controls, the growth of cells without drug treatment under each condition was normalized as 100% separately. The means are presented±SD.
The inorganic nanoscale scaffolding NanoCulture plates (NCP) were purchased from SCIVAX. The base of each NCP is constructed with a transparent cyclo-olefin resinous sheet with a nanoscale indented pattern. To form spheroids, 1205Lu human melanoma cells were seeded in 96-well NCPs at 1×10^4 cells/well in MCDB153 (Sigma)/Leibovitz's L-15 (Cellgro) medium (4:1 ratio) supplemented with 2% heat-inactivated fetal calf serum and 2 mM CaCl2 and incubated in a conventional cell incubator at 37° C. in an atmosphere of 5% CO2 and normal O2 levels. […]

[5] = tested on: 1205Lu melanoma monolayer cultures; assay: 2D monolayer culture viability (CellTiter-Glo); assay type: cell-based, human; details: FIG. 10, 25 μM each drug, 48 h
Procedure: as §1

[6] = tested on: BRAF-mutant melanoma tumor; assay: BRAF-mutant melanoma tumor in mice treated with PLX4720; assay type: in vivo; details: FIG. 11, co-treatment with PLX4720, begun when the tumor has regressed
Procedure: FIG. 11 provides a graph of tumor volume in mice over time after treatment with PLX4720 alone or PLX4720 with delayed administration of AP and DFMO.
In addition to the above, the efficacy of AP in vivo was also tested.

[7] = tested on: CXCR4^+ RAW247.6 macrophage cells; assay: In vitro chemotaxis assay, SDF-1 stimulated migration; assay type: cell-based
Procedure: The ability to inhibit stromal cell-derived factor 1 (SDF-1) stimulated migration of macrophage was also tested in an in vitro chemotaxis assay. Specifically, CXCR4^+ RAW247.6 macrophage cells were treated with SDF-1α alone or with AMD3100, a specific CXCR4 antagonist which inhibits cell migration and phosphorylation of ERK1/2 by SDF-1, or AP (Formula (II)).

CNCNCNCc1ccc(CNCNCNC)c2ccccc12 [AP]
IC50 [1]: 4.5 µM
PTS Activity (cpm ^3H Spd/μg Protein) ([2]; 1205Lu, column group AP (without DFMO)): 230 ± 22 cpm ^3H Spd/μg Protein
PTS Activity (cpm ^3H Spd/μg Protein) ([2]; WM88, column group AP (without DFMO)): 302 ± 18 cpm ^3H Spd/μg Protein
PTS Activity (cpm ^3H Spd/μg Protein) ([2]; WM983B, column group AP (without DFMO)): 487 ± 64 cpm ^3H Spd/μg Protein
PTS Activity (cpm ^3H Spd/μg Protein) ([2]; WM989, column group AP (without DFMO)): 304 ± 28 cpm ^3H Spd/μg Protein
PTS Activity (cpm ^3H Spd/μg Protein) ([2]; WM3211, column group AP (without DFMO)): 278 ± 58 cpm ^3H Spd/μg Protein
PTS Activity (cpm ^3H Spd/μg Protein) ([2]; WM3451, column group AP (without DFMO)): 130 ± 21 cpm ^3H Spd/μg Protein
PTS Activity (cpm ^3H Spd/μg Protein) ([2]; WM3734, column group AP (without DFMO)): 444 ± 46 cpm ^3H Spd/μg Protein
PTS Activity (cpm ^3H Spd/μg Protein) ([2]; WM3743, column group AP (without DFMO)): 117 ± 23 cpm ^3H Spd/μg Protein
IC50 [3]: 24.4 µM
cell viability of spheroid cultures [4]: similarly sensitive
cell viability of monolayer cultures [5]: similarly sensitive
regrowth of BRAF inhibitor-resistant tumor [6]: significantly retards the regrowth
SDF-1-stimulated migration of CXCR4+ macrophages ([7]; FIG. 13): inhibits
viability of the macrophages ([7]; in the chemotaxis assay): without affecting the viability
